Test results taken from patent US4709027A, “Bicyclic spirosulfonimides with psychotropic activity” (American Home Products Corporation, priority 1986, dated 1987).
Where two headings read alike, the source gives them in different places.

Columns and labels:
[1] = conditioned avoidance (shelf-jump response) test; assay type: in vivo, male CD rats; details: i.p., rats
From the text: A test designed to determine the potential antipsychotic activity of the compounds of the invention is the conditioned avoidance (shelf-jump response) test.
Male CD rats (Charles River) maintained at approximately 400-450 gm body weight are used. […] A moveable wall, controlled by a motor, determines whether the rat has access to the shelf at any time during the experiment. The experimental chamber also contains a house light and sonalert. A steel grid floor in the main chamber is wired for presentation of electric shock. Each trial consists of a fifteen-second warning tone (conditioned stimulus), continuing for an additional fifteen seconds accompanied by electric shock, (unconditioned stimulus). A response (jumping onto the exposed shelf of the upper chamber) occurring during the initial fifteen-second warning tone is considered an avoidance response, while a response occurring during shock delivery is considered an escape response. Trials are presented on a fixed interval schedule of one minute. The session consists of thirty-six trials. Animals are run twice weekly with control sessions always preceding a drug run, and with at least one day intervening. Compounds are administered i.p. or p.o. at appropriate pre-treatment times to a minimum of five rats at each dose level over a range of doses.
The following experimental parameters are recorded by computer: (1) the number of avoidance responses, (2) the number of escape responses, and (3) the number of trials in which no response occurred.
(§1) Response counts are summed over all subjects at a given dose. […] This number is expressed as a percentage of the total trials. Control performance is arbitrarily assigned a value of 100% for avoidance and the dose calculated to produce a 50% block in avoidance responding (AB50) is obtained from a dose-effect regression line fitted by the method of least squares. Potential anti-psychotic compounds suppress avoidance responding and increase escape responding.

[2] = conditioned avoidance (discrete trial) test; assay type: in vivo, male CD rats; details: Rattus norvegicus, po, rats, read-out: AB50 (dose producing 50% block in avoidance responding), discrete trial
Procedure: The antipsychotic activity of the compounds of the invention is assessed via the conditioned avoidance (discrete trial) test. This test has excellent clinical correlation for antipsychotic activity.
Male CD rats (Charles River) maintained at approximately 400-450 gm body weight are used. Rats trained previously are placed in plexiglass experimental chambers equipped with a response lever, house light, and sonalert. A steel grid floor is wired for presentation of electric shock. Each trial consists of a fifteen-second warning tone (conditioned stimulus), continuing for an additional fifteen seconds accompanied by electric shock, (unconditioned stimulus). The rat can terminate a trial at any point by depression of the response lever. […]
The following experimental parameters are recorded by computer; (1) the number of interval responses, (2) the number of avoidance responses, (3) the number of escape responses, and (4) the number of trials in which no response occurred.
as §1, with “Potential anti-psychotic compounds suppress avoidance responding and increase escape responding.” left out

[3] = test system: 5-HT-1A serotonin receptor; experiment: ex vivo inhibition of 5-HT-1A serotonin receptor binding (3H-8-OH-DPAT, hippocampal membranes); design: species or system rats; details: at 1 μM of drug concentration
Procedure: Several groups of rats (4-6 rats/group) are injected with test compound or the appropriate vehicle. Thirty minutes later, unless otherwise noted, rats are decapitated and their brains removed. Various brain regions are dissected and rapidly frozen and maintained at -70° C. until used.
Hippocampal tissue is dissected and homogenized on ice in 40 vols of buffer (50 mM Tris HCl, pH=7.7) using a Polytron homogenizer at setting 5 for 3×15 sec bursts. The homogenate is then centrifuged at 20,000 rpm (RC5-B; 50,000 g) and the supernatant discarded. The pellet is resuspended in 40 vols of the same buffer and incubated at 37° C. for 10 minutes to aid in the removal of endogenous serotonin. the homogenate is then centrifuged (as above) and the supernatant discarded. […]
The homogenate (50 μl; 0.4-0.6 mg protein/sample) is incubated with 100 μl (1.5-1.8 nM) ^3 H-8-hydroxy-2-(di-n-propylamino)tetraline in a final volume of 2 ml of buffer for 10 minutes at 37° C. […] The vials are then counted in a Packard 460 CD scintillation counter.
Specific binding is calculated for each of the treatment protocols and is defined as total binding less binding in the presence of excess unlabeled serotonin (1 μM). Specific binding obtained in vehicle-treated rats is compared to that obtained in animals receiving a single or various doses of test compound and expressed as percent of control.

Compound	Active at (dose), shelf-jump [1] [mg/kg]	ED50 ([2]; peroral administration, range in parentheses) [mg/kg]	ED50 ([2]; perorally, unit inferred) [mg/kg]	displacement of specific 3H-8-OH-DPAT binding from hippocampal membranes [3] [%]
CC1CC(=O)N(CCCCN2CCN(c3ncccn3)CC2)S(=O)(=O)N1 (stereo not drawn) [Example 3, 5,6-Dihydro-5-methyl-2-[4-[4-(2-pyrimidinyl)-1-piperazinyl]butyl]-2H-1,2,6-thiadiazin-3(4H)-one 1,1-dioxide]	40			
O=C1CC2(CCCC2)CC(=O)N1CCCCN1CCN(c2ncccn2)CC1 [Buspirone, 8-[4-[4-(2-pyrimidinyl)-1-piperazinyl]butyl]-8-azaspiro[4.5]decane-7,9-dione, reference compound]		47.9		
CC1CC(=O)N(CCCCN2CCN(c3cncc(Cl)n3)CC2)S(=O)(=O)N1 (stereo not drawn) [Example 1, 2-[4-[4-(6-Chloro-2-pyrazinyl)-1-piperazinyl]butyl]-5,6-dihydro-5-methyl-2H-1,2,6-thiadiazin-3(4H)-one 1,1 dioxide]	40		32.5	61
O=C1N(CCCCN2CCN(c3ncccn3)CC2)S(=O)(=O)NC12CCCCC2 [Example 2, 3-[4-[4-(2-Pyrimidinyl)-1-piperazinyl]butyl]2-thia-1,3-diazaspiro[4,5]decan-4-one 2,2-dioxide]	40			
